Laboratory results reported in patent publication US20230131808A1, “PEGYLATED INTERFERON TAU AND COMPOSITIONS AND METHODS THEREOF” (priority 2020, published 2023).

Experiments:
Huh7 cells = assay: Cytotoxicity in Huh7 cells without virus infection (CellTiter Glo)
[1] = as above; conditions: human
hCoV-OC43 = assay: HCoV OC43 CPE assay in Huh7 cells; type: cell-based; conditions: Betacoronavirus 1, Huh-7
[2] = tested on: Human Coronavirus 229E (hCoV-229E); assay: microbe, parasite or virus in culture; type: cell-based

With CCC(CC)COC(=O)[C@H](C)N[P@](=O)(OC[C@H]1O[C@@](C#N)(c2ccc3c(N)ncnn23)[C@H](O)[C@@H]1O)Oc1ccccc1 [Remdesivir] the “Average Viability (%)” value (Huh7 cells; 0.046 μM) was 99.99%, the “Average Viability (%)” value (Huh7 cells; 0.137 μM) was 101.58% and the “Average Viability (%)” value (Huh7 cells; 0.412 μM) was 104.10%. The “Average Viability (%)” value (Huh7 cells; 1.235 μM) was 102.28%, the “Average Viability (%)” value (Huh7 cells; 3.704 μM) was 86.91% and the “Average Viability (%)” value (Huh7 cells; 11.11 μM) was 56.84%. For the same compound, the “Average Viability (%)” value (Huh7 cells; 33.33 μM) was 36.88%, the “Average Viability (%)” value (Huh7 cells; 100.00 μM) was 21.77% and the CC50 at 7 days [1] was 17.2 µM.

Work on CCN(CC)CCCC(C)Nc1ccnc2cc(Cl)ccc12 (centres unmarked) [chloroquine phosphate] yielded an EC50 (hCoV-OC43) of 3.12 µM.

Compound NC(=O)c1ncn([C@@H]2O[C@H](CO)[C@@H](O)[C@H]2O)n1 [Ribavirin] has an IC50 [2] of 30 µM.
